# Measurements from patent publication US20230190924A1, “ANTIGEN OF ALLERGY AND EPITOPE THEREOF” (HOYU CO., LTD., priority 2017, published 2023).
# Test system: IgE antibodies from patients
# Assay: Epitope mapping (2) overlapping (10-amino-acid peptides) and (3) alanine scanning on peptide arrays
# Assay type: binding, human
# Details: overlapping peptides with flanking sequence
# Procedure: On the basis of the sequences (SEQ ID NOs: 272-295 for vitellogenin-2 precursor, SEQ ID NOs: 296-303 for vitellogenin-3, SEQ ID NOs: 304-311 for apolipoprotein B precursor, and SEQ ID NOs: 312-318 for vitellogenin-1 or lipovitellin-1) of the peptides bound to an IgE antibody in serum in a patient-specific manner as described above in (A), a library of overlapping peptide fragments (length: 10 amino acids) was prepared using the sequences of the peptides and sequences in which sequences were added so as to flank each peptide in the amino acid sequences of allergen components (amino acid sequences of SEQ ID NO: 59, 106 or 262 for vitellogenin-2 precursor, SEQ ID NO: 2, 13 or 47 for vitellogenin-3, SEQ ID NO: 152, 237 or 251 for apolipoprotein B, and SEQ ID NO: 18 for vitellogenin-1 or lipovitellin-1) comprising the sequences of the peptide to carry out epitope mapping.
# The peptides to be synthesized were shifted by one amino acid.
# The library was prepared by the same procedure as described above in (A), and the presence or absence of binding of an IgE antibody present in the serum of a patient and a non-egg-allergic subject to each peptide fragment was measured by the same technique as described above. Amino acids at positions where the binding activity against IgE antibodies from patients were lost or decreased in the peptides shifted by one amino acid while binding activity against IgE antibodies from non-egg-allergic subjects arose were confirmed as amino acids adversely affecting the specificity of binding to IgE antibodies.
# Chemiluminescence intensity in images obtained by measurement was converted into a numeric value in the same manner as in (A) using ImageQuant TL (GE Healthcare). Numeric values determined from images obtained as a result of using only anti-human IgE antibody-HRP antibody without carrying out the procedures (2) and (3) described above in the subsection titled (3) Spotting of cellulose-bound peptide solution were […] numeric values determined from images obtained from results about the serum of 6 patients. It was determined that a peptide having the resulting value larger than 0 had no binding activity against IgE antibodies when having less than 20% of values obtained using the sequences (amino acid sequences of SEQ ID NO: 59, 106 or 262 for vitellogenin-2, SEQ ID NO: 2, 13 or 47 for vitellogenin-3, SEQ ID NO: 152, 237 or 251 for apolipoprotein B, and SEQ ID NO: 18 for vitellogenin-1 or lipovitellin-1) serving as the basis of overlapping, had binding activity, albeit poor, against IgE antibodies when having 20% or more and less than 50% thereof, had binding activity, albeit somewhat poor, against IgE antibodies when having 50% or more and less than 70% thereof, had almost equivalent binding activity against IgE antibodies when having 70% or more and less than 90% thereof, and had equivalent or good binding activity against IgE antibodies and thus had remaining binding activity against IgE antibodies when having 90% or more thereof.
# From the amino acid sequences identified above in (A), a library of peptide fragments in which N-terminal amino acids were substituted one by one by alanine according to a technique called alanine scanning (Non Patent Literature 1) was prepared by the same technique as described above. The presence or absence of binding of an IgE antibody present in the serum of a patient and a non-egg-allergic subject to each peptide fragment was measured by the same technique as described above. Amino acids at positions where the binding activity against IgE antibodies from patients were lost or decreased by the substitution by alanine while binding activity against IgE antibodies from non-egg-allergic subjects arose were confirmed as amino acids important for exertion of original antigenicity, or amino acids influencing exertion of original antigenicity.
Substance,"binding to IgE antibodies from patients, sequence comprising a region amino-terminally adjacent to the epitope","binding to IgE antibodies from patients, sequence comprising a region carboxy-terminally adjacent to the epitope"
SEQ ID NO: 385: sequence comprising a region amino-terminally adjacent to epitope 8 (ELGKALQGWK; epitope),binding to IgE antibodies from patients,–
SEQ ID NO: 393: sequence comprising a region carboxy-terminally adjacent to epitope 8 (LPTETPLV; epitope),–,binding to IgE antibodies from patients
SEQ ID NO: 401: sequence comprising a region carboxy-terminally adjacent to epitope 8 (LPTETPLVS; epitope),–,binding to IgE antibodies from patients
SEQ ID NO: 402: sequence comprising a region carboxy-terminally adjacent to epitope 8 (LPTETPLVSA; epitope),–,binding to IgE antibodies from patients
SEQ ID NO: 404: sequence comprising a region amino-terminally adjacent to epitope 9 (EVAFININKE; epitope),binding to IgE antibodies from patients,–
SEQ ID NO: 409: sequence comprising a region amino-terminally adjacent to epitope 10 (LQQVMKTVVE; epitope),binding to IgE antibodies from patients,–
SEQ ID NO: 422: sequence comprising a region amino-terminally adjacent to epitope 11 (PMKFDAKIDV; epitope),binding to IgE antibodies from patients,–
SEQ ID NO: 426: sequence comprising a region carboxy-terminally adjacent to epitope 11 (LKNLKIETNP; epitope),–,binding to IgE antibodies from patients
SEQ ID NO: 451: sequence comprising a region amino-terminally adjacent to epitope 17 (FVTNLTDSSK; epitope),binding to IgE antibodies from patients,–
SEQ ID NO: 452: sequence comprising a region amino-terminally adjacent to epitope 17 (TNLTDSSKWK; epitope),binding to IgE antibodies from patients,–
SEQ ID NO: 462: sequence comprising a region amino-terminally adjacent to epitope 19 (NKIKTFNE; epitope),binding to IgE antibodies from patients,–
SEQ ID NO: 465: sequence comprising a region carboxy-terminally adjacent to epitope 19 (VKFNYSMPAN; epitope),–,binding to IgE antibodies from patients
SEQ ID NO: 466: sequence comprising a region carboxy-terminally adjacent to epitope 19 (FNYSMPANCY; epitope),–,binding to IgE antibodies from patients
SEQ ID NO: 471: sequence comprising a region amino-terminally adjacent to epitope 20 (GEATNLKAIN; epitope),binding to IgE antibodies from patients,–

# Same assay, conditions: procedures (B) overlapping and (C) alanine scanning
row,Substance,region within the epitope important for binding to IgE antibodies from patients
1,SEQ ID NO: 388: region in epitope 8 (KALQGWKEL; epitope),important for binding
2,SEQ ID NO: 391: region in epitope 8 (GWKELPTET; epitope),important for binding
3,SEQ ID NO: 392: region in epitope 8 (GWKELPTETP; epitope),important for binding
4,SEQ ID NO: 397: region in epitope 8 (KALQGWKELP; epitope),important for binding
5,SEQ ID NO: 400: region in epitope 8 (GWKELPTETP; epitope),important for binding
6,SEQ ID NO: 407: region in epitope 9 (ELLQQ; epitope),important for binding
7,SEQ ID NO: 412: region in epitope 10 (MKTVVEPA; epitope),important for binding
8,SEQ ID NO: 414: region in epitope 10 (ADRNA; epitope),important for binding
9,SEQ ID NO: 419: region in epitope 11 (DVKLKNLK; epitope),important for binding
10,SEQ ID NO: 425: region in epitope 11 (DVKLKNLKI; epitope),important for binding
11,SEQ ID NO: 430: region in epitope 14 (PSKKGNTVLA; epitope),important for binding
12,SEQ ID NO: 434: region in epitope 15 (SSSSSNSKS; epitope),important for binding
13,SEQ ID NO: 436: region in epitope 15 (SSSNSKSSSS; epitope),important for binding
14,SEQ ID NO: 440: region in epitope 15 (SSNSKSS; epitope),important for binding
15,SEQ ID NO: 444: region in epitope 16 (QEFPKRKLPG; epitope),important for binding
16,SEQ ID NO: 446: region in epitope 16 (PKRKLPGDRA; epitope),important for binding
17,SEQ ID NO: 449: region in epitope 16 (RKLPGDRATS; epitope),important for binding
18,SEQ ID NO: 455: region in epitope 17 (TDSSKWKLCA; epitope),important for binding
19,SEQ ID NO: 458: region in epitope 17 (KWKLCADAS; epitope),important for binding
20,SEQ ID NO: 461: region in epitope 19 (KIKTF; epitope),important for binding
21,SEQ ID NO: 464: region in epitope 19 (FNEVKFNYSM; epitope),important for binding
22,SEQ ID NO: 470: region in epitope 20 (EATNLKAIN; epitope),important for binding
23,SEQ ID NO: 473: region in epitope 20 (INIKIGSH; epitope),important for binding
